From patent US10392368B2, “Pyrazolo and triazolo bicyclic compounds as JAK kinase inhibitors” (THERAVANCE BIOPHARMA R&D IP, LLC, priority 2017, dated 2019)
Like-named read-outs stand apart in the source and are kept apart here.

Legend:
JAK1 = target: T1, JAK1 (Homo sapiens, UniProt P23458); experiment: Biochemical JAK1 kinase assay (LanthaScreen); conditions: for Ki: read-out: JAK 1 (pKi) (converted)
T1 construct: GST; purchased Life Technologies
In short: (§1)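 Values are pKi, calculated by Cheng-Prusoff from IC50 obtained by robust 4-parameter fitting of percent inhibition. The kinase reaction used GFP-STAT1 peptide in HEPES pH 7.5 buffer with MgCl2, EGTA and Brij-35, ATP-initiated after compound pre-incubation, 1 h at ambient temperature.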

JAK3 = target: T2, JAK3 (Homo sapiens, UniProt P52333); experiment: Biochemical JAK3 kinase assay (LanthaScreen); design: GST; purchased Life Technologies; conditions: for Ki: read-out: JAK 3 (pKi) (converted)
T2 sequence (P52333 1-1124): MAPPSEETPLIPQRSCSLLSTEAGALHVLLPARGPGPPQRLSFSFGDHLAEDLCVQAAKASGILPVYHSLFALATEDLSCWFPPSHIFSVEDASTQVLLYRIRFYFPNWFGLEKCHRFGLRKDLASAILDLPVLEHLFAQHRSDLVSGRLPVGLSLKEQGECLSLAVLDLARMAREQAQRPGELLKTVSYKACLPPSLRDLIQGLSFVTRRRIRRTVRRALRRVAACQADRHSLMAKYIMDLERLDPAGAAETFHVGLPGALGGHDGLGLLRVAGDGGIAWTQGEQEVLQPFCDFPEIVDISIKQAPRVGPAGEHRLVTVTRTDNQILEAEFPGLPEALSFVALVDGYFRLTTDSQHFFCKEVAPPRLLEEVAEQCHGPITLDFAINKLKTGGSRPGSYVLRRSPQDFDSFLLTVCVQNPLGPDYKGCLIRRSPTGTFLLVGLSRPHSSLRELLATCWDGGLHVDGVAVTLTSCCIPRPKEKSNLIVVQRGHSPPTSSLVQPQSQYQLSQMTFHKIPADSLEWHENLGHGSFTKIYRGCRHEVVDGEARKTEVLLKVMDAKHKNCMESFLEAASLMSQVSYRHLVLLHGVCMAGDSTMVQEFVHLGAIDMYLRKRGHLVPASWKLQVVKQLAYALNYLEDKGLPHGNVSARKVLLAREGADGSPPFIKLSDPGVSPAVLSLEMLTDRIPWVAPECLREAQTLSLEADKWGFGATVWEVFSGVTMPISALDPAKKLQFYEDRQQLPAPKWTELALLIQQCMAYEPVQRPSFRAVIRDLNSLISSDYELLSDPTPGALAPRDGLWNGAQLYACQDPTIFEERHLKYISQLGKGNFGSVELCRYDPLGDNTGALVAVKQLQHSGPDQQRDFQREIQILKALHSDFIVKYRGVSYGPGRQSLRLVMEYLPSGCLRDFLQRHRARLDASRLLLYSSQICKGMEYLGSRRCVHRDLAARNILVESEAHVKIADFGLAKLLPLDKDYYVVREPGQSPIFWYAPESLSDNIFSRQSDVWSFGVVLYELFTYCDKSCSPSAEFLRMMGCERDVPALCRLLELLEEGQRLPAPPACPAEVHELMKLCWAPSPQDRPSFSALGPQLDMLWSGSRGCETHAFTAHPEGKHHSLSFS
In short: as §1

[1] = system: IL-2 stimulated pSTAT5 in Tall-1 T cells; experiment: Cellular JAK3 potency assay: inhibition of IL-2 stimulated pSTAT5 in Tall-1 T cells; type: cell-based, human; conditions: for IC50: Homo sapiens, read-out: Tall-1 (pIC50) (converted)
In short: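 Inhibition of IL-2-induced pSTAT5 was quantified by AlphaLisa in Tall-1 cell lysates. Compound exposure lasted 1 h before 30 min stimulation with 300 ng/ml IL-2 final.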

[2] = selectivity JAK3 over JAK1, difference of pKi
[3] = IL-2 stimulated pSTAT5, Tall-1 T cells
[4] = selectivity: difference of pKi JAK3 and pKi JAK1
[5] = TALL-1, IL-2 stimulated pSTAT5 in Tall-1 T cells
[6] = TALL-1, IL-2 stimulated pSTAT5, Tall-1 T cells
[7] = IL-2 stimulated pSTAT5 in Tall-1 T cells

T1 sequence (P23458 whole entry): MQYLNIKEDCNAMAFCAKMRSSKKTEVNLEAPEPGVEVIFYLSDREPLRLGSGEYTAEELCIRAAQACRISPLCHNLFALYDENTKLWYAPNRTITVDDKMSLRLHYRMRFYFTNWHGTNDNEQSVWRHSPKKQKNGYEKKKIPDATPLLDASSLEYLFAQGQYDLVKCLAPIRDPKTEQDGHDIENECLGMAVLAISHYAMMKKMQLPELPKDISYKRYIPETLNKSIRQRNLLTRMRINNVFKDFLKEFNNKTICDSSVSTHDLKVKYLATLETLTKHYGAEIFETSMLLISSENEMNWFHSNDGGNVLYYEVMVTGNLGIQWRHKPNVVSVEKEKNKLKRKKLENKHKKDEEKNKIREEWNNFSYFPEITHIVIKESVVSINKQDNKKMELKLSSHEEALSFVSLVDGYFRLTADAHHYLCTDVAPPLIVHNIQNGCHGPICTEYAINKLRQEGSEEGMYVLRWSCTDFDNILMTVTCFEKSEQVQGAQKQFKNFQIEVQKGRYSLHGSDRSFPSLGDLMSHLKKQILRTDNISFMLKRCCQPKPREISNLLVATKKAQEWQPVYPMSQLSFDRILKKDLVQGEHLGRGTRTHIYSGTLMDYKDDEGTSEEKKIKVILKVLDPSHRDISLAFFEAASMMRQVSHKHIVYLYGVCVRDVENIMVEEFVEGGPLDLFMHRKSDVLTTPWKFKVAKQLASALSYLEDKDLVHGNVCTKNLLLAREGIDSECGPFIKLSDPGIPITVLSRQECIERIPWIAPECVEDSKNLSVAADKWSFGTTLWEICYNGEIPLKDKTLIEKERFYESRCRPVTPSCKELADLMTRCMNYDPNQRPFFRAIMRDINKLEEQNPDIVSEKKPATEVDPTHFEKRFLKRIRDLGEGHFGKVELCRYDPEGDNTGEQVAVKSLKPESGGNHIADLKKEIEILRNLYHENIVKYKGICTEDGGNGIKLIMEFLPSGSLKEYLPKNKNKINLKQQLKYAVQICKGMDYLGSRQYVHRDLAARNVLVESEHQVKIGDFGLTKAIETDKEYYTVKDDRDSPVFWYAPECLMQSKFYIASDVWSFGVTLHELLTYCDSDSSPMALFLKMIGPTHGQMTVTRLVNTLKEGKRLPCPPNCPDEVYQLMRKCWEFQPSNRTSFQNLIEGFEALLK

SMILES | JAK 1 (pKi) (JAK1) | JAK 3 (pKi) (JAK3) | JAK3 (pKi)-JAK1 (pKi) (JAK3; [2]) | Tall-1 (pIC50) [1, 3] | Ki (JAK1) | Ki (JAK3) | JAK3 (pKi)-JAK1 (pKi) (JAK3; [4]) | IC50 [1, 5] | IC50 [1, 6] | Tall-1 (pIC50) [1, 7]
C=CC(=O)N1CCO[C@H](C(=O)Nc2cc(-c3ccc(O)cc3)cc3[nH]ncc23)C1 [Compound 11-1] | E (a pKi value of 7 or below (Ki of 100 nM or above)) | B (a pKi value between 9 and 10 (Ki between 1 nM and 0.1 nM)) | A (a value of 3 or above) | A (a pIC50 value≥7.5 (IC50≤32 nM)) | – | – | – | – | – | –
C[C@@H]1C[C@H](Oc2cc(-c3ccc(O)cc3)cc3[nH]ncc23)CN1C(=O)/C=C/CN(C)C [Compound 1-10] | – | – | – | – | > 0.1 µM | 0.0001 to 0.001 µM | A (a value of 3 or above) | 0.2 to 1 µM | – | –
C=CC(=O)N1CCC(Oc2nc(-c3ccc(O)cc3)nc3[nH]ncc23)CC1 [Compound 6-12] | – | – | A (a value of 3 or above) | – | > 0.1 µM | 0.0001 to 0.001 µM | – | – | 0.0316 to 0.2 µM | –
C=CC(=O)N1CCC[C@H](Oc2nc(-c3ccc(O)c(F)c3)nc3[nH]ncc23)C1 [Compound 8-13] | E (a pKi value of 7 or below (Ki of 100 nM or above)) | B (a pKi value between 9 and 10 (Ki between 1 nM and 0.1 nM)) | A (a value of 3 or above) | C (a pIC50 value between 6 and 6.7 (IC50 between 1 μM and 200 nM)) | – | – | – | – | – | –
C=CC(=O)N1CC[C@H](Oc2cc(-c3ccc(O)c(F)c3F)cc3[nH]ncc23)C1 [Compound 1-13] | – | – | – | – | > 0.1 µM | 0.0001 to 0.001 µM | B (a value of 2.3 to 3) | 0.0316 to 0.2 µM | – | –
C=CC(=O)N1CC[C@H](Oc2cc(-c3cc(F)c(O)c(F)c3)cc3[nH]ncc23)C1 [Compound 1-14] | – | – | – | – | > 0.1 µM | < 0.0001 µM | A (a value of 3 or above) | 0.0316 to 0.2 µM | – | –
C=CC(=O)N1CC[C@H](Oc2nc(-c3ccc(O)cc3)nc3[nH]ncc23)C1 [Compound 1-6] | – | – | – | – | > 0.1 µM | 0.0001 to 0.001 µM | A (a value of 3 or above) | 0.2 to 1 µM | – | –
CN(C)C/C=C/C(=O)N1CC(Oc2cc(-c3ccc(O)cc3)cc3[nH]ncc23)C1 [Compound 5-1] | E (a pKi value of 7 or below (Ki of 100 nM or above)) | B (a pKi value between 9 and 10 (Ki between 1 nM and 0.1 nM)) | – | – | – | – | A (a value of 3 or above) | – | – | C (a pIC50 value between 6 and 6.7 (IC50 between 1 μM and 200 nM))
CN(C)C/C=C/C(=O)N1CC[C@@H](COc2cc(-c3ccc(O)cc3)cc3[nH]ncc23)C1 [Compound 12-19] | – | – | A (a value of 3 or above) | – | > 0.1 µM | < 0.0001 µM | – | – | 0.2 to 1 µM | –
C=CC(=O)N1C2CCC1CC(Oc1cc(-c3ccc(O)c(F)c3)cc3[nH]ncc13)C2 (stereo not shown) [Compound 10-6] | D (a pKi value between 7 and 8 (Ki between 100 nM and 10 nM)) | B (a pKi value between 9 and 10 (Ki between 1 nM and 0.1 nM)) | B (a value of 2.3 to 3) | A (a pIC50 value≥7.5 (IC50≤32 nM)) | – | – | – | – | – | –
CN(C)CC=CC(=O)N1C2CCC1CC(Oc1cc(-c3ccc(O)cc3)cc3[nH]ncc13)C2 (stereo not shown) [Compound 10-1] | D (a pKi value between 7 and 8 (Ki between 100 nM and 10 nM)) | A (a pKi value≥10 (Ki≤0.1 nM)) | B (a value of 2.3 to 3) | B (a pIC50 value between 6.7 (included) and 7.5 (IC50 between 200 nM and 32 nM)) | – | – | – | – | – | –
CN(C)C/C=C/C(=O)N1CC[C@H](Oc2nc(-c3ccc(O)cc3)cc3[nH]ncc23)C1 [Compound 1-7] | – | – | – | – | > 0.1 µM | 0.0001 to 0.001 µM | B (a value of 2.3 to 3) | 0.2 to 1 µM | – | –
C=CC(=O)N1CCC(S(=O)(=O)c2cc(-c3ccc(O)cc3)cc3[nH]ncc23)CC1 [Compound 12-8] | – | – | A (a value of 3 or above) | – | > 0.1 µM | 0.0001 to 0.001 µM | – | – | 0.2 to 1 µM | –
C=CC(=O)N1CC(C(C)(C)Oc2cc(-c3ccc(O)c(Cl)c3)cc3[nH]ncc23)C1 [Compound 3-26] | E (a pKi value of 7 or below (Ki of 100 nM or above)) | B (a pKi value between 9 and 10 (Ki between 1 nM and 0.1 nM)) | – | – | – | – | A (a value of 3 or above) | – | – | B (a pIC50 value between 6.7 (included) and 7.5 (IC50 between 200 nM and 32 nM))
C=C(CN(C)C)C(=O)N1CC[C@H](Oc2cc(-c3ccc(O)cc3)cc3[nH]ncc23)C1 [Compound 16, (S)-2-((dimethylamino)methyl)-1-(3-((6-(4-hydroxyphenyl)-1H-indazol-4-yl)oxy)pyrrolidin-1-yl)prop-2-en-1-one] | – | – | – | – | > 0.1 µM | 0.0001 to 0.001 µM | A (a value of 3 or above) | 0.0316 to 0.2 µM | – | –
CN(C)C/C=C/C(=O)N1CC(N(C)c2cc(-c3ccc(O)cc3)cc3[nH]ncc23)C1 [Compound 5-8] | E (a pKi value of 7 or below (Ki of 100 nM or above)) | B (a pKi value between 9 and 10 (Ki between 1 nM and 0.1 nM)) | – | – | – | – | A (a value of 3 or above) | – | – | C (a pIC50 value between 6 and 6.7 (IC50 between 1 μM and 200 nM))
C=CC(=O)N1CC2(CCC2Oc2nc(-c3ccc(O)c(Cl)c3)nc3[nH]ncc23)C1 (stereo not shown) [Compound 13-17] | E (a pKi value of 7 or below (Ki of 100 nM or above)) | A (a pKi value≥10 (Ki≤0.1 nM)) | A (a value of 3 or above) | B (a pIC50 value between 6.7 (included) and 7.5 (IC50 between 200 nM and 32 nM)) | – | – | – | – | – | –
C=CC(=O)N1CC(N(C)c2cc(-c3ccc(O)cc3)cc3[nH]ncc23)C1 [Compound 5-9] | E (a pKi value of 7 or below (Ki of 100 nM or above)) | B (a pKi value between 9 and 10 (Ki between 1 nM and 0.1 nM)) | – | – | – | – | A (a value of 3 or above) | – | – | C (a pIC50 value between 6 and 6.7 (IC50 between 1 μM and 200 nM))
CN(C)C/C=C/C(=O)N1CC[C@H](Oc2cc(-c3ccc(O)cc3)cc3[nH]nc(Cl)c23)C1 [Compound 1-48] | E (a pKi value of 7 or below (Ki of 100 nM or above)) | C (a pKi value between 8 and 9 (Ki between 10 nM and 1 nM)) | – | – | – | – | B (a value of 2.3 to 3) | – | – | B (a pIC50 value between 6.7 (included) and 7.5 (IC50 between 200 nM and 32 nM))
C=CC(=O)N1CC[C@H](Oc2cc(-c3ccc(O)cc3)cc3[nH]nc(C(F)(F)F)c23)C1 [Compound 1-43] | – | – | – | – | > 0.1 µM | < 0.0001 µM | A (a value of 3 or above) | < 0.0316 µM | – | –
C=CC(=O)N1CC(Oc2cc(-c3ccc(O)cc3)nc3[nH]ncc23)C1 [Compound 5-15] | E (a pKi value of 7 or below (Ki of 100 nM or above)) | A (a pKi value≥10 (Ki≤0.1 nM)) | – | – | – | – | A (a value of 3 or above) | – | – | B (a pIC50 value between 6.7 (included) and 7.5 (IC50 between 200 nM and 32 nM))
C=CC(=O)N1CC[C@H](COc2cc(-c3ccc(O)c(Cl)c3)nc3[nH]ncc23)C1 [Compound 2-16] | E (a pKi value of 7 or below (Ki of 100 nM or above)) | B (a pKi value between 9 and 10 (Ki between 1 nM and 0.1 nM)) | – | – | – | – | A (a value of 3 or above) | – | – | C (a pIC50 value between 6 and 6.7 (IC50 between 1 μM and 200 nM))
